Measured values reported in patent US4582845A, “Pharmaceutical composition for injection” (Sumitomo Pharmaceuticals Co., Ltd., priority 1980, dated 1986).
Converted amounts (≈) assume the structure as drawn.

Columns and labels:
Format in all cases: physicochemical
[1] = Coloration of Compound A on exposure to oxygen, heat or light
[2] = Solubility in solutions of basic substances (Experimental Example 7)
Experimental: (§1) Excess amounts of the Compound A were dispersed in aqueous solutions containing various surfactants and additives, respectively. In each case, the solubility of the compound was determined by measuring the light absorbance at 277 nm with the filtrate. For non-aqueous vehicles marked with *, the corresponding solubility of the compound was judged by eye-measurement.
Using the same procedures as stated in Experimental Example 6, solubility measurements were carried out.

[3] = Solubility in water; conditions: 25° C., as free base form
[4] = Solubility in aqueous solutions of surfactants/additives and non-aqueous vehicles (Experimental Example 6)
Experimental: as §1

In the case of NC(=O)c1nc[nH]c1O [Compound A, 4-carbamoyl-5-hydroxyimidazole], the coloration / instability [1] is reported as “so unstable that it is easily colored upon exposure to oxygen, heat, or light”, the solubility ([2]; pH 8.2, 5% L-lysine, pH of solvent 8.20) is reported as 10.7 mg/mL (≈ 84.2 mM) and the solubility ([2]; pH 8.42, aqueous buffer, NaHCO3-Na2CO3 buffer, pH of solvent 8.42) is reported as 26.7 mg/mL (≈ 210 mM). For the same compound, the solubility ([2]; pH 8.44, 5% borax, pH of solvent 8.44) was 22.2 mg/mL (≈ 175 mM), the solubility ([2]; pH 8.5, 0.5% NaOH, pH of solvent 8.50) was 21.4 mg/mL (≈ 168 mM) and the solubility ([2]; pH 8.56, 5% trishydroxy methylamino methane, pH of solvent 8.56) was 25.7 mg/mL (≈ 202 mM). For the same compound, the solubility ([2]; pH 8.64, 1% ethanolamine, pH of solvent 8.64) was 24.9 mg/mL (≈ 196 mM), the solubility ([2]; pH 8.69, 5% L-arginine, pH of solvent 8.69) was 33.5 mg/mL (≈ 264 mM) and the solubility [3] was about 4.7 mg/mL (≈ 37 mM). For the same compound, the solubility ([4]; 5% amycol no. 1) was 5.1 mg/mL (≈ 40.1 mM), the solubility ([4]; 5% ethylurea) was 5.6 mg/mL (≈ 44.1 mM) and the solubility ([4]; 5% levulinic acid) was 6.3 mg/mL (≈ 49.6 mM). For the same compound, the solubility ([4]; 5% nicotinic amide) was 7.2 mg/mL (≈ 56.6 mM), the solubility ([4]; 5% polyoxyethylene hydrogenated castor oil, organic solvent or mixture) was 4.5 mg/mL (≈ 35.4 mM) and the solubility ([4]; 5% polyoxyethylene sorbitan monooleate) was 4.6 mg/mL (≈ 36.2 mM). For the same compound, the solubility ([4]; 5% sodium lauryl sulfate) was 4.7 mg/mL (≈ 37 mM), the solubility ([4]; 5% sodium salicylate) was 6.5 mg/mL (≈ 51.1 mM) and the solubility ([4]; 5% tartaric acid) was 7 mg/mL (≈ 55.1 mM). For the same compound, the solubility ([4]; 10% mannitol) was 4.6 mg/mL (≈ 36.2 mM), the “Solubility (in words)” value ([4]; 10% sodium deoxycholate) was “white gel” and the solubility ([4]; corn oil, organic solvent or mixture) was under 2 mg/mL. For the same compound, the solubility ([4]; cotton seed oil, organic solvent or mixture) was under 2 mg/mL, the solubility ([4]; ethanol, organic solvent or mixture) was under 2 mg/mL and the solubility ([4]; glycerine, organic solvent or mixture) was about 3 mg/mL (≈ 23.6 mM). The solubility ([4]; n,n-dimethylacetamide, organic solvent or mixture) was under 2 mg/mL, the solubility ([4]; polyethylene glycol, organic solvent or mixture) was under 2 mg/mL and the solubility ([4]; propylene glycol, organic solvent or mixture) was about 5 mg/mL (≈ 39.3 mM). For the same compound, the solubility ([4]; saturated aspartic acid) was 5.4 mg/mL (≈ 42.5 mM), the “Solubility (in words)” value ([4]; saturated gentisic acid) was “white gel” and the solubility ([4]; saturated glutamic acid) was 5.3 mg/mL (≈ 41.7 mM). It also gave a solubility ([4]; sesame oil, organic solvent or mixture) of under 2 mg/mL and a solubility ([4]; water) of 4.7 mg/mL (≈ 37 mM).
